The source made the active and inactive calls. The rule behind the calls is not given here.
System: rodent lifetime carcinogenesis bioassay, tumor incidence TD50
Assay: chronic cancer bioassays in animals – CPDB, compiled studies (AID 1745844)
Conditions: in feed

For `COc1nn(CSP(=S)(OC)OC)c(=O)s1`, the carcinogen call (mouse, strain Charles River CD1, females, site: liver, lesion: hepatocellular adenoma, dosed 100 weeks, study length 100 weeks) was “negative (inactive)”, the TD50 (mouse, strain Charles River CD1, females, site: liver, lesion: hepatocellular carcinoma, dosed 100 weeks, study length 100 weeks) was 184 mg/kg/day (inactive) and the TD50 (mouse, strain Charles River CD1, females, site: liver, lesion: several types, types named in the paper, dosed 100 weeks, study length 100 weeks) was 16200 mg/kg/day (inactive). The TD50 (mouse, strain Charles River CD1, males, site: liver, lesion: hepatocellular adenoma, dosed 100 weeks, study length 100 weeks) was 17.2 mg/kg/day, the TD50 (mouse, strain Charles River CD1, males, site: liver, lesion: hepatocellular carcinoma, dosed 100 weeks, study length 100 weeks) was 21.8 mg/kg/day and the TD50 (mouse, strain Charles River CD1, males, site: liver, lesion: several types, types named in the paper, dosed 100 weeks, study length 100 weeks) was 6.04 mg/kg/day.
For `Cc1cc(C)c(S(=O)(=O)O)cc1N=Nc1cc(S(=O)(=O)O)c2ccccc2c1O`, the TD50 (dog, strain Beagle, females, site: adrenal gland, lesion: medullary adenoma, dosed 365 weeks, study length 365 weeks) was 316 mg/kg/day, the TD50 (dog, strain Beagle, females, site: any site (literature study), lesion: several types, types named in the paper, dosed 365 weeks, study length 365 weeks) was 670 mg/kg/day and the TD50 (dog, strain Beagle, females, site: mammary gland, lesion: adenocarcinoma, dosed 365 weeks, study length 365 weeks) was 316 mg/kg/day (inactive). The carcinogen call (mouse, strain C3HeB/Jax, both sexes, site: any site (literature study), lesion: several types, types named in the paper, dosed 104 weeks, study length 104 weeks) was “negative (inactive)”, the carcinogen call (mouse, strain C3HeB/Jax, both sexes, site: liver, lesion: hepatoma, dosed 104 weeks, study length 104 weeks) was “negative (inactive)” and the TD50 (mouse, strain C57BL/He, both sexes, site: any site (literature study), lesion: several types, types named in the paper, dosed 104 weeks, study length 104 weeks) was 20300 mg/kg/day (inactive). For the same molecule, the TD50 (mouse, strain C57BL/He, both sexes, site: liver, lesion: hepatoma, dosed 104 weeks, study length 104 weeks) was 57100 mg/kg/day (inactive), the TD50 (rat, strain Non-inbred, both sexes, site: any site (literature study), lesion: several types, types named in the paper, dosed 143 weeks, study length 143 weeks) was 12000 mg/kg/day and the TD50 (rat, strain Non-inbred, both sexes, site: liver, lesion: hepatoma, dosed 143 weeks, study length 143 weeks) was 49500 mg/kg/day. For the same molecule, the TD50 (rat, strain Osborne-Mendel, both sexes, site: all sites, lesion: fibrosarcoma, dosed 104 weeks, study length 104 weeks) was 20300 mg/kg/day (inactive), the carcinogen call (rat, strain Osborne-Mendel, both sexes, site: any site (literature study), lesion: several types, types named in the paper, dosed 104 weeks, study length 104 weeks) was “negative (inactive)” and the TD50 (rat, strain Osborne-Mendel, both sexes, site: liver, lesion: adenoma, dosed 104 weeks, study length 104 weeks) was 59800 mg/kg/day (inactive). For the same molecule, the carcinogen call (rat, strain Sprague-Dawley, both sexes, site: any site (literature study), lesion: several types, types named in the paper, dosed 104 weeks, study length 104 weeks) was “negative (inactive)” and the TD50 (rat, strain Wistar, both sexes, site: abdomen, lesion: malignant lymphoma, dosed 91 weeks, study length 91 weeks) was 6130 mg/kg/day.
Molecule `O=CNNc1nc(-c2ccc([N+](=O)[O-])o2)cs1` has a TD50 (hamster, strain Syrian Golden, males, site: forestomach, lesion: squamous-cell papilloma, dosed 48 weeks, study length 70 weeks) of 25.1 mg/kg/day, a TD50 (hamster, strain Syrian Golden, males, site: urinary bladder, lesion: transitional-cell carcinoma, dosed 48 weeks, study length 70 weeks) of 16.6 mg/kg/day and a TD50 (mouse, strain Swiss, females, site: all sites, lesion: leukemia, dosed 33 weeks, study length 52 weeks) of 25.6 mg/kg/day. For the same molecule, the TD50 (mouse, strain Swiss, females, site: all sites, lesion: lymphocytic leukemia, dosed 33 weeks, study length 52 weeks) was 11.4 mg/kg/day, the TD50 (mouse, strain Swiss, females, site: any site (literature study), lesion: several types, types named in the paper, dosed 33 weeks, study length 52 weeks) was 2.42 mg/kg/day and the TD50 (mouse, strain Swiss, females, site: forestomach, lesion: papilloma, dosed 33 weeks, study length 52 weeks) was 13.8 mg/kg/day. It also gave a TD50 (mouse, strain Swiss, females, site: forestomach, lesion: squamous-cell papilloma, dosed 33 weeks, study length 52 weeks) of 8.85 mg/kg/day, a TD50 (mouse, strain Swiss, females, site: lung, lesion: alveolar-cell carcinoma, dosed 33 weeks, study length 52 weeks) of 67.1 mg/kg/day and a TD50 (rat, strain Buffalo, females, site: kidney, lesion: several types, types named in the paper, dosed 46 weeks, study length 64 weeks) of 17.5 mg/kg/day. The TD50 (rat, strain Buffalo, females, site: kidney, lesion: tubular adenoma, dosed 46 weeks, study length 64 weeks) was 98.6 mg/kg/day, the TD50 (rat, strain Buffalo, females, site: kidney, lesion: tubular-cell adenocarcinoma, dosed 46 weeks, study length 64 weeks) was 44.1 mg/kg/day and the TD50 (rat, strain Buffalo, females, site: liver, lesion: cystadenoma, dosed 46 weeks, study length 64 weeks) was 39.1 mg/kg/day. It also gave a TD50 (rat, strain Buffalo, females, site: mammary gland, lesion: adenocarcinoma, dosed 46 weeks, study length 64 weeks) of 13.1 mg/kg/day, a TD50 (rat, strain Buffalo, females, site: mammary gland, lesion: adenofibroma, dosed 46 weeks, study length 64 weeks) of 80.5 mg/kg/day and a TD50 (rat, strain Buffalo, females, site: mammary gland, lesion: several types, types named in the paper, dosed 46 weeks, study length 64 weeks) of 5.54 mg/kg/day. The TD50 (rat, strain Holtzman albino (Sprague-Dawley derived), females, site: cecum, lesion: adenocarcinoma, dosed 44 weeks, study length 60 weeks) was 210 mg/kg/day, the TD50 (rat, strain Holtzman albino (Sprague-Dawley derived), females, site: ear canal, lesion: squamous-cell carcinoma, dosed 44 weeks, study length 60 weeks) was 100 mg/kg/day and the TD50 (rat, strain Holtzman albino (Sprague-Dawley derived), females, site: kidney, lesion: adenoma, dosed 44 weeks, study length 60 weeks) was 17.6 mg/kg/day. The TD50 (rat, strain Holtzman albino (Sprague-Dawley derived), females, site: kidney, lesion: carcinoma, dosed 44 weeks, study length 60 weeks) was 78.5 mg/kg/day, the TD50 (rat, strain Holtzman albino (Sprague-Dawley derived), females, site: liver, lesion: hemangioendothelial sarcoma, dosed 44 weeks, study length 60 weeks) was 428 mg/kg/day (inactive) and the TD50 (rat, strain Holtzman albino (Sprague-Dawley derived), females, site: mammary tissue, wider than the gland, lesion: one or several types, types not named, dosed 44 weeks, study length 60 weeks) was 5.5 mg/kg/day. It also gave a TD50 (rat, strain Holtzman albino (Sprague-Dawley derived), females, site: small intestine, lesion: adenocarcinoma, dosed 44 weeks, study length 60 weeks) of 78.5 mg/kg/day, a TD50 (rat, strain Sprague-Dawley, females, site: all sites, lesion: lymphoblastic lymphoma, dosed 45 weeks, study length 75 weeks) of 184 mg/kg/day and a TD50 (rat, strain Sprague-Dawley, females, site: any site (literature study), lesion: several types, types named in the paper, dosed 45 weeks, study length 75 weeks) of 3.79 mg/kg/day. It also gave a TD50 (rat, strain Sprague-Dawley, females, site: forestomach, lesion: squamous-cell papilloma, dosed 45 weeks, study length 75 weeks) of 65.4 mg/kg/day, a TD50 (rat, strain Sprague-Dawley, females, site: kidney/pelvis, lesion: transitional-cell carcinoma, dosed 45 weeks, study length 75 weeks) of 137 mg/kg/day and a TD50 (rat, strain Sprague-Dawley, females, site: kidney, lesion: renal-cell carcinoma, dosed 45 weeks, study length 75 weeks) of 65.4 mg/kg/day. The TD50 (rat, strain Sprague-Dawley, females, site: kidney, lesion: several types, types named in the paper, dosed 46 weeks, study length 64 weeks) was 9.96 mg/kg/day, the TD50 (rat, strain Sprague-Dawley, females, site: kidney, lesion: tubular adenoma, dosed 46 weeks, study length 64 weeks) was 50.7 mg/kg/day and the TD50 (rat, strain Sprague-Dawley, females, site: kidney, lesion: tubular-cell adenocarcinoma, dosed 46 weeks, study length 64 weeks) was 33.9 mg/kg/day. The TD50 (rat, strain Sprague-Dawley, females, site: liver, lesion: cystadenoma, dosed 46 weeks, study length 64 weeks) was 43.9 mg/kg/day, the carcinogen call (rat, strain Sprague-Dawley, females, site: liver, lesion: one or several types, types not named, dosed 45 weeks, study length 75 weeks) was “negative (inactive)” and the TD50 (rat, strain Sprague-Dawley, females, site: liver, lesion: several types, types named in the paper, dosed 46 weeks, study length 64 weeks) was 30.1 mg/kg/day. It also gave a TD50 (rat, strain Sprague-Dawley, females, site: mammary gland, lesion: adenocarcinoma, dosed 45 weeks, study length 75 weeks) of 3.54 mg/kg/day, a TD50 (rat, strain Sprague-Dawley, females, site: mammary gland, lesion: adenocarcinoma, dosed 46 weeks, study length 64 weeks) of 19.5 mg/kg/day and a TD50 (rat, strain Sprague-Dawley, females, site: mammary gland, lesion: adenofibroma, dosed 46 weeks, study length 64 weeks) of 52.8 mg/kg/day. It also gave a TD50 (rat, strain Sprague-Dawley, females, site: mammary gland, lesion: several types, types named in the paper, dosed 46 weeks, study length 64 weeks) of 5.85 mg/kg/day, a TD50 (rat, strain Sprague-Dawley, males, site: kidney/pelvis, lesion: transitional-cell carcinoma, dosed 46 weeks, study length 64 weeks) of 69.9 mg/kg/day and a TD50 (rat, strain Sprague-Dawley, males, site: kidney, lesion: several types, types named in the paper, dosed 46 weeks, study length 64 weeks) of 5.82 mg/kg/day. The TD50 (rat, strain Sprague-Dawley, males, site: kidney, lesion: tubular adenoma, dosed 46 weeks, study length 64 weeks) was 47.6 mg/kg/day, the TD50 (rat, strain Sprague-Dawley, males, site: kidney, lesion: tubular-cell adenocarcinoma, dosed 46 weeks, study length 64 weeks) was 19.3 mg/kg/day and the TD50 (rat, strain Sprague-Dawley, males, site: liver, lesion: cystadenoma, dosed 46 weeks, study length 64 weeks) was 35.3 mg/kg/day. The TD50 (rat, strain Sprague-Dawley, males, site: mammary gland, lesion: adenofibroma, dosed 46 weeks, study length 64 weeks) was 46.2 mg/kg/day.

Reference: PubChem BioAssay AID1745844 (Carcinogenic Potency Database (CPDB), 2022)
